Structure (SMILES) | melting point
Cc1nc(-n2cc(-c3ccccc3)nn2)sc1C(=O)NCc1ccccc1 [Example 10, N-benzyl-4-methyl-2-(4-phenyl-1H-1,2,3-triazol-1-yl)thiazole-5-carboxamide] | 175 to 178 °C
Cc1nc(-n2cc(CCCc3ccccc3)nn2)sc1C(=O)NCc1cccnc1 [Example 14, 4-methyl-2-(4-(3-phenylpropyl)-1H-1,2,3-triazol-1-yl)-N-(pyridin-3-ylmethyl)thiazole-5-carboxamide] | 108 to 110 °C
Cc1nc(-n2cc(C(=O)c3ccccc3)nn2)sc1C(=O)NCc1ccccc1 [Example 11, 2-(4-benzoyl-1H-1,2,3-triazol-1-yl)-N-benzyl-4-methylthiazole-5-carboxamide] | 176 to 178 °C
Cc1nc(-c2cn(Cc3ccccc3)nn2)sc1C(=O)NCc1cccnc1 [Example 4, 2-(1-benzyl-1H-1,2,3-triazol-4-yl)-4-methyl-N-(pyridin-3-ylmethyl)thiazole-5-carboxamide] | 212 to 213 °C
Cc1cc(-c2n[nH]c(Cc3ccccc3)n2)sc1C(=O)NCc1ccccc1 [Example 9, N-benzyl-5-(5-benzyl-1H-1,2,4-triazol-3-yl)-3-methylthiophene-2-carboxamide] | 168 to 171 °C
Cc1nc(-c2n[nH]c(Cc3ccccc3)n2)sc1C(=O)NCc1ccccc1 [Example 8, N-benzyl-2-(5-benzyl-1H-1,2,4-triazol-3-yl)-4-methylthiazole-5-carboxamide] | 235 to 237 °C
Cc1cc(-n2nnc(-c3ccccc3)n2)sc1C(=O)NCc1ccccc1 [Example 21, N-benzyl-3-methyl-5-(5-phenyl-2H-tetrazol-2-yl)thiophene-2-carboxamide] | 155 to 158 °C
Cc1nc(-c2cn(CC(F)(F)c3ccccc3)nn2)sc1C(=O)NCc1cccnc1 [Example 30, 2-(1-(2,2-difluoro-2-phenylethyl)-1H-1,2,3-triazol-4-yl)-4-methyl-N-(pyridin-3-ylmethyl)thiazole-5-carboxamide] | 150 to 151 °C
Cc1nc(-c2nn[nH]n2)sc1C(=O)NCc1cccnc1 [Example 6, 4-methyl-N-(pyridin-3-ylmethyl)-2-(2H-tetrazol-5-yl)thiazole-5-carboxamide] | > 200 °C (dec.)
Cc1nc(-c2cnc(Cc3ccccc3)o2)sc1C(=O)NCc1ccccc1 [Example 36, N-benzyl-2-(2-benzyloxazol-5-yl)-4-methylthiazole-5-carboxamide] | 141 to 142 °C
Cc1cc(-c2ncn(Cc3ccc(F)cc3)n2)sc1C(=O)NCc1ccccc1 [Example 23, N-benzyl-5-(1-(4-fluorobenzyl)-1H-1,2,4-triazol-3-yl)-3-methylthiophene-2-carboxamide] | 128 to 130 °C
Cc1nc(-n2cc(C(=O)NCc3ccccc3)nn2)sc1C(=O)NCc1ccccc1 [Example 18, N-benzyl-2-(4-(benzylcarbamoyl)-1H-1,2,3-triazol-1-yl)-4-methylthiazole-5-carboxamide] | 178 to 180 °C
Cc1nc(-c2noc(Cc3ccccc3)n2)sc1C(=O)NCc1ccccc1 [Example 34, N-benzyl-2-(5-benzyl-1,2,4-oxadiazol-3-yl)-4-methylthiazole-5-carboxamide] | 124 to 125 °C
Cc1nc(-n2[nH]c(C)c(Cc3ccc(Cl)cc3)c2=O)sc1C(=O)NCc1cccnc1 [Example 33, 2-(4-(4-chlorobenzyl)-3-methyl-5-oxo-2,5-dihydro-1H-pyrazol-1-yl)-4-methyl-N-(pyridin-3-ylmethyl)thiazole-5-carboxamide] | 215 to 217 °C

Continued, values first:

melting point | Structure (SMILES)
212 to 213 °C | Cc1nc(-c2cn(Cc3ccc(F)cc3)nn2)sc1C(=O)NCc1cccnc1 [Example 4.1, 2-(1-(4-fluorobenzyl)-1H-1,2,3-triazol-4-yl)-4-methyl-N-(pyridin-3-ylmethyl)thiazole-5-carboxamide]
114 to 115 °C | Cc1nc(-c2cc(CCc3ccccc3)no2)sc1C(=O)NCc1ccccc1 [Example 27.1, N-benzyl-4-methyl-2-(3-phenethylisoxazol-5-yl)thiazole-5-carboxamide]
146 to 149 °C | Cc1nc(-n2cc([C@H](O)c3ccccc3)nn2)sc1C(=O)NCc1ccccc1 [Example 10.12, (R)—N-benzyl-2-(4-(hydroxy(phenyl)methyl)-1H-1,2,3-triazol-1-yl)-4-methylthiazole-5-carboxamide]
140 to 143 °C | Cc1nc(-n2cc(COc3ccccc3)nn2)sc1C(=O)NCc1ccccc1 [Example 10.4, N-benzyl-4-methyl-2-(4-(phenoxymethyl)-1H-1,2,3-triazol-1-yl)thiazole-5-carboxamide]
154 to 155 °C | Cc1cc(-c2ncn(Cc3ccc(F)cc3)n2)sc1C(=O)NCc1cccnc1 [Example 23.1, 5-(1-(4-fluorobenzyl)-1H-1,2,4-triazol-3-yl)-3-methyl-N-(pyridin-3-ylmethyl)thiophene-2-carboxamide]
131 to 132 °C | Cc1nc(-c2cn(Cc3ccc(C(F)(F)F)cc3)nn2)sc1C(=O)NCc1ccccc1 [Example 1.3, N-benzyl-4-methyl-2-(1-(4-(trifluoromethyl)benzyl)-1H-1,2,3-triazol-4-yl)thiazole-5-carboxamide]
204 to 205 °C | Cc1nc(-c2cn(Cc3ccc(C(F)(F)F)cc3)nn2)sc1C(=O)NCc1cccnc1 [Example 4.2, 4-methyl-N-(pyridin-3-ylmethyl)-2-(1-(4-(trifluoromethyl)benzyl)-1H-1,2,3-triazol-4-yl)thiazole-5-carboxamide]
140 to 141 °C | Cc1nc(-c2cn(CC3CC3)nn2)sc1C(=O)NCc1cccnc1 [Example 4.5, 2-(1-(cyclopropylmethyl)-1H-1,2,3-triazol-4-yl)-4-methyl-N-(pyridin-3-ylmethyl)thiazole-5-carboxamide]
124 to 125 °C | Cc1nc(-c2cn(CCC3CC3)nn2)sc1C(=O)NCc1cccnc1 [Example 4.4, 2-(1-(2-cyclopropylethyl)-1H-1,2,3-triazol-4-yl)-4-methyl-N-(pyridin-3-ylmethyl)thiazole-5-carboxamide]
184 to 187 °C | Cc1nc(-n2cc(-c3ccccn3)nn2)sc1C(=O)NCc1ccccc1 [Example 10.6, N-benzyl-4-methyl-2-(4-(pyridin-2-yl)-1H-1,2,3-triazol-1-yl)thiazole-5-carboxamide]
94 to 97 °C | Cc1nc(-n2cc(CCCc3ccccc3)nn2)sc1C(=O)NCc1ccccc1 [Example 10.3, N-benzyl-4-methyl-2-(4-(3-phenylpropyl)-1H-1,2,3-triazol-1-yl)thiazole-5-carboxamide]
143 to 146 °C | Cc1nc(-n2cc(C(O)c3ccccc3)nn2)sc1C(=O)NCc1ccccc1 (stereo not shown) [Example 10.7, N-benzyl-2-(4-(hydroxy(phenyl)methyl)-1H-1,2,3-triazol-1-yl)-4-methylthiazole-5-carboxamide]
117 to 119 °C | Cc1nc(-n2cc(-c3cccnc3)nn2)sc1C(=O)NCc1ccccc1 [Example 10.9, N-benzyl-4-methyl-2-(4-(pyridin-3-yl)-1H-1,2,3-triazol-1-yl)thiazole-5-carboxamide]
183 to 186 °C | Cc1nc(-n2nnc(C(=O)NCc3ccccc3)c2C)sc1C(=O)NCc1ccccc1 [Example 18.2, N-benzyl-2-(4-(benzylcarbamoyl)-5-methyl-1H-1,2,3-triazol-1-yl)-4-methylthiazole-5-carboxamide]
114 to 116 °C | Cc1nc(-n2cc(CCc3ccccc3)nn2)sc1C(=O)NCc1cccnc1 [Example 14.2, 4-methyl-2-(4-phenethyl-1H-1,2,3-triazol-1-yl)-N-(pyridin-3-ylmethyl)thiazole-5-carboxamide]
81 to 84 °C | Cc1nc(-n2cc(CCCc3ccccc3)nn2)sc1C(=O)NCc1ccc(F)c(F)c1 [Example 14.1, N-(3,4-difluorobenzyl)-4-methyl-2-(4-(3-phenylpropyl)-1H-1,2,3-triazol-1-yl)thiazole-5-carboxamide]
167 to 170 °C | Cc1nc(-n2cc(CCc3ccccc3)nn2)sc1C(=O)NCc1ccccc1 [Example 10.2, N-benzyl-4-methyl-2-(4-phenethyl-1H-1,2,3-triazol-1-yl)thiazole-5-carboxamide]
237 to 240 °C | Cc1nc(-n2cc(-c3ccc(OCc4ccccc4)cc3)nn2)sc1C(=O)NCc1ccccc1 [Example 10.8, N-benzyl-2-(4-(4-(benzyloxy)phenyl)-1H-1,2,3-triazol-1-yl)-4-methylthiazole-5-carboxamide]
114 to 115 °C | Cc1nc(-c2cn(Cc3ccc(F)cc3)nn2)sc1C(=O)NCc1ccccc1 [Example 1.2, N-benzyl-2-(1-(4-fluorobenzyl)-1H-1,2,3-triazol-4-yl)-4-methylthiazole-5-carboxamide]
168 to 171 °C | COc1ccc(-c2cn(-c3nc(C)c(C(=O)NCc4ccccc4)s3)nn2)cc1 [Example 10.5, N-benzyl-2-(4-(4-methoxyphenyl)-1H-1,2,3-triazol-1-yl)-4-methylthiazole-5-carboxamide]
203 to 205 °C | Cc1nc(-n2cc(-c3ccc(F)cc3)nn2)sc1C(=O)NCc1ccccc1 [Example 10.13, N-benzyl-2-(4-(4-fluorophenyl)-1H-1,2,3-triazol-1-yl)-4-methylthiazole-5-carboxamide]
159 to 162 °C | Cc1nc(-n2cc(CNc3ccccc3)nn2)sc1C(=O)NCc1ccccc1 [Example 10.10, N-benzyl-4-methyl-2-(4-((phenylamino)methyl)-1H-1,2,3-triazol-1-yl)thiazole-5-carboxamide]
123 to 126 °C | Cc1nc(-n2cc(-c3ccsc3)nn2)sc1C(=O)NCc1ccccc1 [Example 10.11, N-benzyl-4-methyl-2-(4-(thiophen-3-yl)-1H-1,2,3-triazol-1-yl)thiazole-5-carboxamide]

Reference: patent US8258160B2, “SCD1 inhibitors triazole and tetrazole compounds” (Novartis AG, priority 2006, dated 2012)
